Laboratory results as given in ChEMBL document CHEMBL3507680, “University of Dundee, Gates Library screen for HepG2 cell viability”.

assay: Human HepG2 cell viability assay in 384 well format; type: toxicity, cell-based; parameters: dose 125 nL, time 70.5 hour; concentration not given beside the values; settings: HepG2 cells, read-out: Inhibition

Point of comparison: `CCn1ccc(-c2cc(NCCCOc3ccccc3C)nc(C)n2)n1`, cytotoxicity at 70.5 h -1.9%. Against it:
- NC(=O)Nc1cccc(C(=O)N(Cc2ccc(F)cc2)C2CC2)c1 — lower, -14.8%
- O=C(Nc1ccc(S(=O)(=O)Nc2ccccc2)cc1)N1CCCC1 — lower, -11.6%
- Cn1cc(Cl)c(CN2CCCC(Cn3cc(CO)nn3)C2)n1 (stereo not given) — lower, -6.23%
- Cc1cc(CNC(=O)NCCC(=O)N2CCCc3ccccc32)no1 — higher, 7.7%
- O=c1[nH]c(NCCO)nc2c1C1(CCCC1)Cc1ccccc1-2 — higher, 18.4%
- Cn1cnnc1CNC(=O)c1ccc(Br)cc1O — lower, -3.54%
- Cc1ccc(C(=O)N2CCC(Oc3ccc(F)cc3F)CC2)c(=O)[nH]1 — higher, 31.6%
- Cc1nc(-c2cccs2)ccc1C(=O)N1CCN(CC(C)O)CC1 (stereo not given) — lower, -2.84%
- Cc1ccc(-c2n[nH]cc2CNCC2CCc3nnc(C)n3C2)cc1 (stereo not given) — higher, -0.696%
- Cc1ccccc1S(=O)(=O)N[C@@H]1CC[C@@H](N2CCNC(=O)C2)[C@@H]1O — lower, -4.42%
- CCc1cc(N(C)Cc2ccncn2)n2nccc2n1 — higher, 13.1%
- CC(NC(=O)NCc1ccccc1F)(C(=O)O)c1ccco1 (stereo not given) — lower, -2.87%
- CCN1CCN(c2ccc(F)cc2C(C)NCc2nc(C)no2)CC1 (stereo not given) — higher, -0.791%
- CCCOC1CCCN(C(=O)c2csc(S(N)(=O)=O)c2)C1 (stereo not given) — higher, 9.57%
- CC(C)CC(NC(=O)CN(C)C(=O)c1ccco1)c1cccs1 (stereo not given) — lower, -9.94%
- Cc1cnn(CC2CCCN2Cc2noc(-c3ccccc3)n2)c1 (stereo not given) — lower, -9.63%
- COCCCNC(=O)CN(C)C(=O)c1cc(C)ccc1O — lower, -9.64%
- CCOCC(=O)N1CCC2(CC1)COC(COCc1ccccn1)C2 (stereo not given) — higher, 4.72%
- CN1CCN(CCCNC(=O)c2cc(Cl)c3c(c2)OCO3)CC1 — lower, -6.03%
- CCc1onc(C)c1C(=O)N1CCC(c2cc3ncccc3cn2)CC1 — higher, 9.24%
- Cn1ncc2c(N[C@H]3CC[C@@H](N)CC3)nc(C(C)(C)C)nc21 — higher, 6.09%
- CNC(=O)[C@@H]1C[C@@H](N)CN1C(=O)CCSCc1ccc(F)cc1 — higher, 7.46%
- Cn1cnc2c1C(COCc1ccccc1)N(Cc1ccncc1)CC2 (stereo not given) — lower, -3.01%
- Cn1ccc(N2CCCC(NC(=O)c3ccc(Cl)o3)C2=O)n1 (stereo not given) — lower, -10.2%
- CSCC[C@H]1CN2CCC[C@H]2CN1Cc1cn(C)nc1C — lower, -3.69%
- Cc1nc(CN2CCN(C(C)C(=O)NC3CCCC3)CC2)cs1 (stereo not given) — lower, -5.82%
- Cc1nsc(N2CCCN(c3ccc(C#N)cn3)CC2)n1 — higher, -0.603%
- COCCN1CCC(CNC(=O)C2(c3cc(C)cc(C)c3)CCC2)C1 (stereo not given) — lower, -5.65%
- COC(=O)N1CCC(Nc2ccc(C#N)c(Cl)c2)C1 (stereo not given) — higher, 1.68%
- c1cc(-c2cn[nH]c2)ncc1CN1CCCCC1 — lower, -6.79%
- Cc1cc(C)nc(NC2CCN(CCOC(C)C)CC2)n1 — higher, 1.5%
- CCc1cn[nH]c1C1CCCN(C(=O)c2cc(C#N)c(=O)[nH]c2C)C1 (stereo not given) — lower, -22.8%
- COc1ccc(-c2cc(C3CCOC3)c(C#N)c(N)n2)cn1 (stereo not given) — higher, 18.9%
- Cc1nc(C)n(C2CCCN(C(=O)CCc3ccncc3)C2)n1 (stereo not given) — higher, -0.318%
- COc1ccc(OC2CCN(C(=O)C(C)Cn3cccn3)CC2)cc1 (stereo not given) — lower, -2.17%
- O=C(C1CCC1)N1CCN(Cc2ccsc2)[C@H]2CS(=O)(=O)C[C@H]21 — higher, -0.678%
- c1ccc(OCC2C[C@@H]3[C@@H](C2)OCCN3Cc2ccoc2)nc1 (stereo not given in full) — higher, -0.172%
- CCC(CC)C(=O)n1ccn(S(=O)(=O)c2ccc(C)cc2)c1=O — higher, 15.1%
- Cc1nc2[nH]cnc(Nc3ccn(C)n3)c-2n1 — lower, -4.89%
- CC(C)c1noc(C(C)N2CCN(Cc3ccsc3)CC2)n1 (stereo not given) — lower, -5.78%
- CC(C)NC(=O)Nc1ccccc1CN1CCOCC1 — lower, -5.87%
- C1CCCN(CC2CCCN(Cc3noc(C4CC4)n3)C2)CC1 (stereo not given) — higher, 0.15%
- CN(C)C1CCCN(C(=O)CCc2csc(N)n2)CC1 (stereo not given) — higher, 1.01%
- COCC(=O)N1CCCC(C(=O)N(C)CCCc2cnn(C)c2)C1 (stereo not given) — higher, 1%
